In ChEMBL document CHEMBL1150262, “Ring size of somatostatin analogues (ODT-8) modulates receptor selectivity and binding affinity” (J Med Chem, 2008) one finds IC50 data, which are given here for 21 compounds.

For assay [1], the target named is Somatostatin receptor type 1 (Homo sapiens, UniProt P30872). Kind of assay: Displacement of [125I]-[Leu8, DTrp22, Tyr25]SRIF28 from human cloned sst1 receptor. For orientation: In a radioligand displacement assay an active substance lowers the binding of a labelled ligand.
Chain of Somatostatin receptor type 1 (P30872 whole entry): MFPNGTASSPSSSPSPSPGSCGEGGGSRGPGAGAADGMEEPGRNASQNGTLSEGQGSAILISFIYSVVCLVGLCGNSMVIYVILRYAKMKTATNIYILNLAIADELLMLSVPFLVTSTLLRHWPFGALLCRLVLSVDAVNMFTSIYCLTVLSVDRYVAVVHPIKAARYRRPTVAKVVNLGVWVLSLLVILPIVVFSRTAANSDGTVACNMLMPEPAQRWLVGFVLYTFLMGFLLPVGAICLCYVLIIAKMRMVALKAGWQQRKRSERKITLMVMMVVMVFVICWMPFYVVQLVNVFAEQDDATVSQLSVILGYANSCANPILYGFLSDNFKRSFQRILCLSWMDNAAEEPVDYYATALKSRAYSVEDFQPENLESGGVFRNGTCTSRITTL
Assay [2] concerns the target Somatostatin receptor type 4 (Homo sapiens, UniProt P31391). Kind of assay: Displacement of [125I]-[Leu8, DTrp22, Tyr25]SRIF-28 from human cloned sst4 receptor expressed in CCL39 cells. In kind it is cell-based.
Assay [3] deals with Somatostatin receptor type 2 (Homo sapiens, UniProt P30874). As to the kind of experiment: Displacement of [125I]-[Leu8, DTrp22, Tyr25]SRIF-28 from human cloned sst2 receptor expressed in CCL39 cells. The format is cell-based.
Chain of Somatostatin receptor type 2 (P30874 whole entry): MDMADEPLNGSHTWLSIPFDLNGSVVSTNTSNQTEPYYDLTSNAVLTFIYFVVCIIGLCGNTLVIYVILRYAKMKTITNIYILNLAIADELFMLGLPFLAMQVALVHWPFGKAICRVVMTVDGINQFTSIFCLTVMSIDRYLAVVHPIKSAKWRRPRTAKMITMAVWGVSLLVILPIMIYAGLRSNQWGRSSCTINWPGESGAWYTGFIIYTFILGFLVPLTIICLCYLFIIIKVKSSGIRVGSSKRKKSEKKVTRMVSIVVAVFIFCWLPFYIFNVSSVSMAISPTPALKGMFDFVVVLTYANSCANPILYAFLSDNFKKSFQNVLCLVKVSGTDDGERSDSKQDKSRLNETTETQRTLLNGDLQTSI
Assay [4] concerns the target Somatostatin receptor type 5 (Homo sapiens, UniProt P35346). As to the kind of experiment: Displacement of [125I]-[Leu8, DTrp22, Tyr25]SRIF-28 from human cloned sst5 receptor expressed in CHOK1 cells. In kind it is cell-based, CHO-K1.
Assay [5] addresses Somatostatin receptor type 3 (Homo sapiens, UniProt P32745). Kind of assay: Displacement of [125I]-[Leu8, DTrp22, Tyr25]SRIF-28 from human cloned sst3 receptor expressed in CCL39 cells. The format is cell-based.

Chain of Somatostatin receptor type 4 (P31391 whole entry): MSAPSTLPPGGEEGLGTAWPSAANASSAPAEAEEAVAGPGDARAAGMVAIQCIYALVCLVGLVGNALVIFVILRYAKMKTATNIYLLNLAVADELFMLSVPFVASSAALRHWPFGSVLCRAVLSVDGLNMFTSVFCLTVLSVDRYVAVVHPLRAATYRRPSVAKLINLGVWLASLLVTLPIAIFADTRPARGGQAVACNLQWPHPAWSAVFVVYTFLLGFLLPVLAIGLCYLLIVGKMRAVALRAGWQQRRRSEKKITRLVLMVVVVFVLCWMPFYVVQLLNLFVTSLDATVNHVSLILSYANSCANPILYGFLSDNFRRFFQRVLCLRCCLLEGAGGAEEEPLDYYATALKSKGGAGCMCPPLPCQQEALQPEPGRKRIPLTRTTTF
Chain of Somatostatin receptor type 5 (P35346 whole entry): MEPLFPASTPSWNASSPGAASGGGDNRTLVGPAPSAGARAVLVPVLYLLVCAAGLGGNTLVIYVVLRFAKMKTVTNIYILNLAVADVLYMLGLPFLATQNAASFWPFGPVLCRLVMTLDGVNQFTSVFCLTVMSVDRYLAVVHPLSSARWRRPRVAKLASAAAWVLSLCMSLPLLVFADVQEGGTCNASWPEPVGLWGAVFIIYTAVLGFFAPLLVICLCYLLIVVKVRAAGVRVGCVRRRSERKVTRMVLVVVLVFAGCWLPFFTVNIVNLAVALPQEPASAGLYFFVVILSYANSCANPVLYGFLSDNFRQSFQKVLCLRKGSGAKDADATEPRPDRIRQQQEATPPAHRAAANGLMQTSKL
Chain of Somatostatin receptor type 3 (P32745 whole entry): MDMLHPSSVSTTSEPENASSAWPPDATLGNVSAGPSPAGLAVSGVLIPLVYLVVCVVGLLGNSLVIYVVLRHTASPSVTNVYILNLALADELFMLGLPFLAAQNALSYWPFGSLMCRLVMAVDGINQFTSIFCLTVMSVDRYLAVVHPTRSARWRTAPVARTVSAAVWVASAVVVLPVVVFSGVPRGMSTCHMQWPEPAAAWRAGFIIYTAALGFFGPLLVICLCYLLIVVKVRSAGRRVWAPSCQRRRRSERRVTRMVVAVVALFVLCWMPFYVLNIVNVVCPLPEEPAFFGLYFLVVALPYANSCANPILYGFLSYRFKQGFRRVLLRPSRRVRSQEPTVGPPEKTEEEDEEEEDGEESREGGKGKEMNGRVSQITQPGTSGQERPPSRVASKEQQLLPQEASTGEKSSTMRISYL

In the case of `CC(=O)N[C@H]1CSS[C@@H](C(=O)O)NC(=O)[C@H](Cc2ccccc2)NC(=O)[C@H]([C@@H](C)O)NC(=O)[C@H](CCCCN)NC(=O)[C@@H](Cc2c[nH]c3ccccc23)NC(=O)[C@H](Cc2ccccc2)NC(=O)[C@H](Cc2ccccc2)NC1=O`, the IC50 – broadly, the concentration that gives 50% inhibition – in assay [1] is greater than 1000 nM; in assay [2], 6 nM; in assay [3], 5.4 nM; in assay [4], 82 nM; in assay [5], 53 nM.
Take `CC(=O)N[C@H]1CSSC[C@@H](C(=O)O)NC(=O)[C@H](Cc2ccccc2)NC(=O)[C@H]([C@@H](C)O)NC(=O)[C@H](CCCCN)NC(=O)[C@@H](Cc2c[nH]c3ccccc23)NC(=O)[C@H](Cc2ccccc2)NC(=O)[C@H](Cc2ccccc2)NC1=O`: the IC50 turned out to be 22 nM in assay [1]; 1.3 nM in assay [2]; 49 nM in assay [3]; 26 nM in assay [4]; 7.1 nM in assay [5].
In the case of `CC(=O)N[C@H]1CCSSC[C@@H](C(=O)O)NC(=O)[C@H](Cc2ccccc2)NC(=O)[C@H]([C@@H](C)O)NC(=O)[C@H](CCCCN)NC(=O)[C@@H](Cc2c[nH]c3ccccc23)NC(=O)[C@H](Cc2ccccc2)NC(=O)[C@H](Cc2ccccc2)NC1=O`, the IC50 in assay [1] came to 96 nM; in assay [2], 0.9 nM; in assay [3], 6.5 nM; in assay [4], 28 nM; in assay [5] it was 38 nM.
On to `CC(=O)N[C@@H]1CCSSC[C@@H](C(=O)O)NC(=O)[C@H](Cc2ccccc2)NC(=O)[C@H]([C@@H](C)O)NC(=O)[C@H](CCCCN)NC(=O)[C@@H](Cc2c[nH]c3ccccc23)NC(=O)[C@H](Cc2ccccc2)NC(=O)[C@H](Cc2ccccc2)NC1=O`, for which the IC50 was 218 nM in assay [1]; 1.4 nM in assay [2]; 40 nM in assay [3]; 90 nM in assay [4]; 69 nM in assay [5].
For the compound `CC(=O)N[C@@H]1CSSC[C@@H](C(=O)O)NC(=O)[C@H](Cc2ccccc2)NC(=O)[C@H]([C@@H](C)O)NC(=O)[C@H](CCCCN)NC(=O)[C@@H](Cc2c[nH]c3ccccc23)NC(=O)[C@H](Cc2ccccc2)NC(=O)[C@H](Cc2ccccc2)NC1=O`, the IC50 in assay [1] came to 16 nM; in assay [2], 0.7 nM; in assay [3], 8 nM; in assay [4], 9.1 nM; in assay [5] it was 19 nM.
For `CC(=O)N[C@@H]1CSS[C@H](C(=O)O)NC(=O)[C@H](Cc2ccccc2)NC(=O)[C@H]([C@@H](C)O)NC(=O)[C@H](CCCCN)NC(=O)[C@@H](Cc2c[nH]c3ccccc23)NC(=O)[C@H](Cc2ccccc2)NC(=O)[C@H](Cc2ccccc2)NC1=O`, the IC50 turned out to be 540 nM in assay [1]; 1.5 nM in assay [2]; 18.5 nM in assay [3]; 51 nM in assay [4]; 30 nM in assay [5].
In the case of `C[C@@H](O)[C@@H]1NC(=O)[C@H](CCCCN)NC(=O)[C@@H](Cc2c[nH]c3ccccc23)NC(=O)[C@H](Cc2ccccc2)NC(=O)[C@H](Cc2ccccc2)NC(=O)[C@@H](N)CSSC[C@H](C(=O)O)NC(=O)[C@H](Cc2ccccc2)NC1=O`, the IC50 in assay [1] was greater than 1000 nM; in assay [2], 8.2 nM; in assay [3], 18 nM; in assay [4], 27 nM; in assay [5], 18.5 nM.
With `CC(=O)N[C@@H]1SS[C@H](C(=O)O)NC(=O)[C@H](Cc2ccccc2)NC(=O)[C@H]([C@@H](C)O)NC(=O)[C@H](CCCCN)NC(=O)[C@@H](Cc2c[nH]c3ccccc23)NC(=O)[C@H](Cc2ccccc2)NC(=O)[C@H](Cc2ccccc2)NC1=O`, the IC50 stood at 302 nM in assay [1]; 1.6 nM in assay [2]; 34 nM in assay [3]; 57 nM in assay [4]; 19 nM in assay [5].
With `CC(=O)N[C@@H]1SSC[C@H](C(=O)O)NC(=O)[C@H](Cc2ccccc2)NC(=O)[C@H]([C@@H](C)O)NC(=O)[C@H](CCCCN)NC(=O)[C@@H](Cc2c[nH]c3ccccc23)NC(=O)[C@H](Cc2ccccc2)NC(=O)[C@H](Cc2ccccc2)NC1=O`, the half-inhibitory concentration (IC50) in assay [1] is greater than 1000 nM; in assay [2], 4.4 nM; in assay [3], 11 nM; in assay [4], 50 nM; in assay [5] it was 69 nM.
For the compound `CC(=O)N[C@@H]1CSSC[C@H](C(=O)O)NC(=O)[C@H](Cc2ccccc2)NC(=O)[C@H]([C@@H](C)O)NC(=O)[C@H](CCCCN)NC(=O)[C@@H](Cc2c[nH]c3ccccc23)NC(=O)[C@H](Cc2ccccc2)NC(=O)[C@H](Cc2ccccc2)NC1=O`, the IC50 in assay [1] is greater than 1000 nM; in assay [2] it was 3.25 nM; in assay [3], 9 nM; in assay [4], 7.4 nM; in assay [5] it was 15 nM.
For `CC(=O)N[C@H]1CSSC[C@H](C(=O)O)NC(=O)[C@H](Cc2ccccc2)NC(=O)[C@H]([C@@H](C)O)NC(=O)[C@H](CCCCN)NC(=O)[C@@H](Cc2c[nH]c3ccccc23)NC(=O)[C@H](Cc2ccccc2)NC(=O)[C@H](Cc2ccccc2)NC1=O`, the IC50 was greater than 1000 nM in assay [1]; 4.5 nM in assay [2]; 4.9 nM in assay [3]; 11 nM in assay [4]; 12 nM in assay [5].
As for `C[C@@H](O)[C@@H]1NC(=O)[C@H](CCCCN)NC(=O)[C@@H](Cc2c[nH]c3ccccc23)NC(=O)[C@H](Cc2ccccc2)NC(=O)[C@H](Cc2ccccc2)NC(=O)C(N)CSSC[C@@H](C(=O)O)NC(=O)[C@H](Cc2ccccc2)NC1=O` (single isomer, unassigned), the IC50 in assay [1] was determined as 14 nM; in assay [2] it was 1 nM; in assay [3] it was 14.5 nM; in assay [4] it was 9.5 nM; in assay [5], 4.5 nM.
Turning to `CC(=O)N[C@@H]1CSS[C@@H](C(=O)O)NC(=O)[C@H](Cc2ccccc2)NC(=O)[C@H]([C@@H](C)O)NC(=O)[C@H](CCCCN)NC(=O)[C@@H](Cc2c[nH]c3ccccc23)NC(=O)[C@H](Cc2ccccc2)NC(=O)[C@H](Cc2ccccc2)NC1=O`, the IC50 is greater than 1000 nM in assay [1]; 3 nM in assay [2]; 4.8 nM in assay [3]; 17 nM in assay [4]; 36 nM in assay [5].
In the case of `CC(=O)N[C@H]1SSC[C@H](C(=O)O)NC(=O)[C@H](Cc2ccccc2)NC(=O)[C@H]([C@@H](C)O)NC(=O)[C@H](CCCCN)NC(=O)[C@@H](Cc2c[nH]c3ccccc23)NC(=O)[C@H](Cc2ccccc2)NC(=O)[C@H](Cc2ccccc2)NC1=O`, the IC50 in assay [1] is greater than 1000 nM; in assay [2], 5 nM; in assay [3], 13 nM; in assay [4] it was 50 nM; in assay [5], 28 nM.
Turning to `CC(=O)N[C@H]1CSS[C@H](C(=O)O)NC(=O)[C@H](Cc2ccccc2)NC(=O)[C@H]([C@@H](C)O)NC(=O)[C@H](CCCCN)NC(=O)[C@@H](Cc2c[nH]c3ccccc23)NC(=O)[C@H](Cc2ccccc2)NC(=O)[C@H](Cc2ccccc2)NC1=O`, the IC50 is 358 nM in assay [1]; 2 nM in assay [2]; 41 nM in assay [3]; 50 nM in assay [4]; 20 nM in assay [5].
Turning to `C[C@@H](O)[C@@H]1NC(=O)[C@H](CCCCN)NC(=O)[C@@H](Cc2c[nH]c3ccccc23)NC(=O)[C@H](Cc2ccccc2)NC(=O)[C@H](Cc2ccccc2)NC(=O)[C@H](N)CSSC[C@H](C(=O)O)NC(=O)[C@H](Cc2ccccc2)NC1=O`, the half-maximal inhibitory concentration (IC50) in assay [1] was greater than 1000 nM; in assay [2], 2.6 nM; in assay [3], 11 nM; in assay [4] it was 8.7 nM; in assay [5], 6.3 nM.
As for `CC(=O)N[C@H]1SSC[C@@H](C(=O)O)NC(=O)[C@H](Cc2ccccc2)NC(=O)[C@H]([C@@H](C)O)NC(=O)[C@H](CCCCN)NC(=O)[C@@H](Cc2c[nH]c3ccccc23)NC(=O)[C@H](Cc2ccccc2)NC(=O)[C@H](Cc2ccccc2)NC1=O`, the IC50 in assay [1] is 416 nM; in assay [2], 3.1 nM; in assay [3] it was 42 nM; in assay [4], 46 nM; in assay [5] it was 14 nM.
`CC(=O)N[C@H]1SS[C@H](C(=O)O)NC(=O)[C@H](Cc2ccccc2)NC(=O)[C@H]([C@@H](C)O)NC(=O)[C@H](CCCCN)NC(=O)[C@@H](Cc2c[nH]c3ccccc23)NC(=O)[C@H](Cc2ccccc2)NC(=O)[C@H](Cc2ccccc2)NC1=O`: the IC50 in assay [1] is greater than 1000 nM; in assay [2], 2.7 nM; in assay [3], 109 nM; in assay [4] it was 107 nM; in assay [5] it was 45 nM.
Regarding `CC(=O)N[C@@H]1SS[C@@H](C(=O)O)NC(=O)[C@H](Cc2ccccc2)NC(=O)[C@H]([C@@H](C)O)NC(=O)[C@H](CCCCN)NC(=O)[C@@H](Cc2c[nH]c3ccccc23)NC(=O)[C@H](Cc2ccccc2)NC(=O)[C@H](Cc2ccccc2)NC1=O`, the IC50 was greater than 1000 nM in assay [1]; 2.6 nM in assay [2]; 3.9 nM in assay [3]; 60 nM in assay [4]; 50 nM in assay [5].
Consider `CC(=O)N[C@@H]1SSC[C@@H](C(=O)O)NC(=O)[C@H](Cc2ccccc2)NC(=O)[C@H]([C@@H](C)O)NC(=O)[C@H](CCCCN)NC(=O)[C@@H](Cc2c[nH]c3ccccc23)NC(=O)[C@H](Cc2ccccc2)NC(=O)[C@H](Cc2ccccc2)NC1=O`, for which the IC50 in assay [1] is 79 nM; in assay [2] it was 1.9 nM; in assay [3], 33 nM; in assay [4], 9 nM; in assay [5], 6 nM.
For `CC(=O)N[C@H]1SS[C@@H](C(=O)O)NC(=O)[C@H](Cc2ccccc2)NC(=O)[C@H]([C@@H](C)O)NC(=O)[C@H](CCCCN)NC(=O)[C@@H](Cc2c[nH]c3ccccc23)NC(=O)[C@H](Cc2ccccc2)NC(=O)[C@H](Cc2ccccc2)NC1=O`, in that order: greater than 1000 nM, 2.2 nM, 13 nM, 21 nM and 31 nM.
